From patent US20250186408A1, “TREATMENT OF PHARMACORESISTANT EPILEPSY” (Katholieke Universiteit Leuven, priority 2021, published 2025)
Entries after “also recorded” stand apart in the source; their conditions may differ.

How the values were obtained:
[1] = tested on: EKP-induced seizure behaviour in zebrafish larvae; test: Zebrafish ethyl ketopentanoate (EKP) seizure model, behavioural analysis; type: in vivo, zebrafish (Danio rerio); settings: for active in the behavioural assay / tolerated in the behavioural assay: 5 dpf larvae, 2 h; for activity against EKP-induced drug-resistant seizures (behavioural) / reduction in EKP-induced drug-resistant seizures (non-significant): maximum tolerated concentration, 7-day-old larvae (FIG. 3); for activity against EKP-induced drug-resistant seizures (behavioural) / reduction in EKP-induced drug-resistant seizures (non-significant) / reduction in EKP-induced seizure behaviour (non-significant): 2 h incubation; for reduction in EKP-induced seizure behaviour (non-significant): 5-day-old larvae; for antiseizure activity at the behavioural level (in words): FIG. 5 and FIG. 3
Procedure: Experiments were performed as described in (16). In brief, a single 5 or 7 dpf larva was placed in each well of a 96-well plate and treated with either VHC (embryo medium with 1% DMSO) or test compound (dissolved in embryo medium, final solvent concentration of 1% DMSO) in a 100 μL volume. Larvae were incubated in the dark for 2 h at 28° C., whereafter 100 μL of either VHC (embryo medium with 1% DMSO) or 600 μM EKP (dissolved in embryo medium, final solvent concentration of 1% DMSO, 300 μM working concentration) was added to each well. Next, within 5 min the 96-well plate was placed in an automated tracking device (ZebraBox Viewpoint, France) and larval behaviour was video recorded for 30 min. The complete procedure was performed in dark conditions using infrared light. Total locomotor activity was recorded by ZebraLab software (Viewpoint, France) and expressed in actinteg units, which is the sum of pixel changes detected during the defined time interval (5 min). Larval behaviour was depicted as mean actinteg units per 5 min during the 30 min recording period and over consecutive time intervals. Data are pooled from independent experiments and expressed as mean±SD.
In our search for novel antiseizure compounds with the potential to treat drug-resistant seizures, the zebrafish EKP seizure model was used for hit identification and as critical gate-keeper for further investigation in the pharmacoresistant mouse 6-Hz (44 mA) psychomotor seizure model. An automated behavioural analysis was done of 7-day-old zebrafish larvae using video tracking (ViewPoint, France).
The compounds were tested in 5-day-old zebrafish larvae at 2 and/or 10 μM, depending on their tolerability, after 2 h incubation time. […] Among the antiseizure hits were compounds from 10 out of 11 classes tested, namely, propynones, propynals, propynols, propenones, amides, quinolinones, naphthyridinones, thiopyranoxides, pyrazolopyridines and indazoles.

[2] = tested on: EKP-induced epileptiform discharges in zebrafish larvae; test: Zebrafish EKP seizure model, electrophysiology (non-invasive LFP recordings, PSD analysis); type: in vivo, zebrafish (Danio rerio); settings: 7 dpf larvae; for efficacy against EKP-induced epileptiform discharges 2 μM / efficacy against EKP-induced epileptiform discharges 10 μM: 22 h incubation, mean, normalized PSD 20-90 Hz; for effect on EKP-induced elevated PSD (in words): 22 h
Procedure: Non-invasive LFP recordings were measured from the midbrain (optic tectum) of 7 dpf zebrafish larvae pre-incubated with VHC only, EKP only, or compound and EKP. […] These steps occurred at 28° C., while further manipulation and electrophysiological recordings occurred at room temperature (±21° C.) and were performed as described before (16, 27). Each recording lasted 600 seconds.
A power spectral density (PSD) analysis of the recordings was performed using MatLab R2019 software (MATrix LABoratory, USA) as described in (26). The PSD estimate of each LFP recording was summed over each 10 Hz frequency band, ranging from 0 to 160 Hz. Next, the PSD estimates were normalized against the VHC control. Data are expressed as mean±SEM PSD per larva and per condition over the 20-90 Hz region. Outliers were identified via the ROUT test (Q=1%).
PSD analysis assumes that the epileptiform activity manifests as a high-power oscillation at certain frequencies (26). Thus, if epileptic activity occurs often during the recording an elevated PSD estimate should be found at the corresponding frequency band(s) (26).

male NMRI mice = test: Mouse 6-Hz (44 mA) psychomotor seizure model; type: in vivo; settings: for mean seizure duration / dose-response relationship (in words): 30 min before stimulation; for dose-response relationship (in words): i.p.
Procedure: The antiseizure activity of compounds was investigated in the mouse 6-Hz (44 mA) psychomotor seizure model as described before (27). […] Seizure behaviour was video recorded and seizure durations were determined by blinded video analysis by experienced researchers, familiar with the different seizure characteristics. Data are expressed as mean±SD.
The 6-Hz 44 mA model is an acute model of pharmacoresistant focal impaired awareness seizures, previously referred to as complex partial or psychomotor seizures that are induced by a low frequency, long duration corneal electrical stimulation (6 Hz, 0.2 ms rectangular pulse width, 3 s duration, 44 mA). Seizures are typically characterized by a clonic phase and stereotypical automatic behaviours like stun, forelimb clonus, Straub tail and vibrissae twitching.

Compound: Nc1ncccc1C(=O)C#Cc1ccc(Cl)c(Cl)c1 [Compound 1.13, 1-(2-aminopyridin-3-yl)-3-(3,4-dichlorophenyl)prop-2-yn-1-one]
- active in the behavioural assay [1]: active
- tolerated in the behavioural assay [1]: tolerated

Compound: O=C(C#Cc1cccc(Cl)c1)c1cccnc1Cl [Compound 1.20, 3-(3-chlorophenyl)-1-(2-chloropyridin-3-yl)prop-2-yn-1-one]
- active in the behavioural assay [1]: active
- tolerated in the behavioural assay [1]: tolerated

Compound: O=C(C#Cc1cccc(Cl)c1)c1cccnc1N1CCOCC1 [Compound 1.21, 3-(3-chlorophenyl)-1-(2-morpholinopyridin-3-yl)prop-2-yn-1-one]
- active in the behavioural assay [1]: active
- tolerated in the behavioural assay [1]: tolerated

Compound: CC(C)(C)c1ccc(C#CC(=O)c2cccnc2N)cc1 [Compound 1.22, 1-(2-aminopyridin-3-yl)-3-(4-(tert-butyl)phenyl)prop-2-yn-1-one]
- efficacy against EKP-induced epileptiform discharges 2 μM ([2]; 2 μM): 45%
- activity against EKP-induced drug-resistant seizures (behavioural) [1]: active; also recorded: most effective

Compound: CCCCCCC#CC(=O)c1cccnc1N [Compound 1.23, 1-(2-aminopyridin-3-yl)non-2-yn-1-one]
- efficacy against EKP-induced epileptiform discharges 2 μM ([2]; 2 μM): 31%
- efficacy against EKP-induced epileptiform discharges 10 μM ([2]; 10 μM): −25%
- reduction in EKP-induced drug-resistant seizures (non-significant) [1]: approximately 20%

Compound: O=C(C#Cc1ccc(Cl)cc1)c1ccccc1 [Compound 1.31, 3-(4-chlorophenyl)-1-phenylprop-2-yn-1-one]
- active in the behavioural assay [1]: active
- tolerated in the behavioural assay [1]: tolerated

Compound: O=C(C#Cc1cccc(F)c1)c1ccccc1 [Compound 1.35, 3-(3-fluorophenyl)-1-phenylprop-2-yn-1-one]
- active in the behavioural assay [1]: active
- tolerated in the behavioural assay [1]: tolerated

Compound: CC(C)(C)c1ccc(C#CC(=O)c2cccc(F)c2)cc1 [Compound 1.39, 3-(4-(tert-butyl)phenyl)-1-(3-fluorophenyl)prop-2-yn-1-one]
- efficacy against EKP-induced epileptiform discharges 2 μM ([2]; 2 μM): −61%

Compound: Nc1ccccc1C(=O)C#Cc1cccc(Cl)c1 [Compound 1.40, 1-(2-aminophenyl)-3-(3-chlorophenyl)prop-2-yn-1-one]
- efficacy against EKP-induced epileptiform discharges 2 μM ([2]; 2 μM): 82%

Compound: CC(C)(C)c1ccc(C#CC=O)cc1 [Compound 2.1, 3-(4-(tert-butyl)phenyl)propiolaldehyde]
- efficacy against EKP-induced epileptiform discharges 2 μM ([2]; 2 μM): 30%

Compound: CC(C)(C)c1ccc(C#CCc2ccccc2)cc1 [Compound 4.1, 1-(tert-butyl)-4-(3-phenylprop-1-yn-1-yl)benzene]
- efficacy against EKP-induced epileptiform discharges 2 μM ([2]; 2 μM): 38%
- reduction in EKP-induced seizure behaviour (non-significant) ([1]; 2 μM): approximately 23%
- reduction in EKP-induced seizure behaviour (non-significant) ([1]; 10 μM): ~19%
- antiseizure activity at the behavioural level (in words) [1]: did not show significant activity

Compound: Nc1ncccc1C(=O)/C=C/c1cccc(Cl)c1 [Compound 5.2, (E)-1-(2-aminopyridin-3-yl)-3-(3-chlorophenyl)prop-2-en-1-one]
- efficacy against EKP-induced epileptiform discharges 2 μM ([2]; 2 μM): 55%

Compound: Nc1ncccc1C(=O)N1CCN(c2cccc(Cl)c2)CC1 [Compound 6.1, (2-aminopyridin-3-yl)(4-(3-chlorophenyl)piperazin-1-yl)methanone]
- efficacy against EKP-induced epileptiform discharges 2 μM ([2]; 2 μM): 61%
- efficacy against EKP-induced epileptiform discharges 10 μM ([2]; 10 μM): 10%
- mean seizure duration (male NMRI mice; 30 mg/kg i.p.): 15.5 s
- mean seizure duration (male NMRI mice; 100 mg/kg i.p.): 4.3 s
- mean seizure duration (male NMRI mice; 300 mg/kg i.p.): 0.5 s
- mean seizure duration (male NMRI mice; 600 mg/kg i.p.): 0.5 s
- dose-response relationship (in words) (male NMRI mice): displayed a dose-response relationship

Compound: CC(C)(C)c1ccc(-c2cc(=O)c3ccccc3[nH]2)cc1 [Compound 7.1, 2-(4-(tert-butyl)phenyl)quinolin-4(1H)-one]
- effect on EKP-induced elevated PSD (in words) ([2]; 2 μM): significantly elevated the PSD
- efficacy against EKP-induced epileptiform discharges 2 μM ([2]; 2 μM): −118%
- effect on EKP-induced elevated PSD (in words) ([2]; 10 μM): significantly elevated the PSD
- efficacy against EKP-induced epileptiform discharges 10 μM ([2]; 10 μM): −217%
- antiseizure activity at the behavioural level (in words) [1]: significant antiseizure activity
- activity against EKP-induced drug-resistant seizures (behavioural) [1]: active

Compound: CC(C)(C)c1ccc(-c2cc(=O)c3cccnc3[nH]2)cc1 [Compound 8.1, 2-(4-(tert-butyl)phenyl)-1,8-naphthyridin-4(1H)-one]
- efficacy against EKP-induced epileptiform discharges 2 μM ([2]; 2 μM): 57%
- efficacy against EKP-induced epileptiform discharges 10 μM ([2]; 10 μM): −117%
- mean seizure duration (male NMRI mice; 30 mg/kg i.p.): 12.5 s
- mean seizure duration (male NMRI mice; 100 mg/kg i.p.): 9.7 s
- mean seizure duration (male NMRI mice; 300 mg/kg i.p.): 2.8 s
- mean seizure duration (male NMRI mice; 600 mg/kg i.p.): 0 s
- dose-response relationship (in words) (male NMRI mice): displayed a dose-response relationship
- activity against EKP-induced drug-resistant seizures (behavioural) [1]: active

Compound: CC(C)(C)c1ccc(C2=CC(c3ccccc3)=CS(C)(=O)=C2)cc1 (stereo not drawn) [Compound 9.1, 3-(4-(tert-butyl)phenyl)-1-methyl-5-phenyl-1λ^6-thiopyran 1-oxide]
- efficacy against EKP-induced epileptiform discharges 2 μM ([2]; 2 μM): 51%

Compound: Cn1nc(C#Cc2cccc(Cl)c2)c2cccnc21 [Compound 10.2, 3-((3-chlorophenyl)ethynyl)-1-methyl-1H-pyrazolo[3,4-b]pyridine]
- effect on EKP-induced elevated PSD (in words) ([2]; 2 μM): did not
- efficacy against EKP-induced epileptiform discharges 2 μM ([2]; 2 μM): 19%
- effect on EKP-induced elevated PSD (in words) ([2]; 10 μM): significant decrease
- efficacy against EKP-induced epileptiform discharges 10 μM ([2]; 10 μM): 76%

Compound: Clc1cccc(C#Cc2n[nH]c3ccccc23)c1 [Compound 11.1, 3-((3-chlorophenyl)ethynyl)-1H-indazole]
- efficacy against EKP-induced epileptiform discharges 2 μM ([2]; 2 μM): 60%

Compound: COc1ccc(C(=O)C#Cc2ccc(C)cc2)cc1 [I.1, 1-(4-methoxyphenyl)-3-(p-tolyl)prop-2-yn-1-one]
- activity against EKP-induced drug-resistant seizures (behavioural) [1]: active

Compound: Cc1ccc(C#CC(=O)c2ccc([N+](=O)[O-])cc2)cc1 [I.2, 1-(4-nitrophenyl)-3-(p-tolyl)prop-2-yn-1-one]
- activity against EKP-induced drug-resistant seizures (behavioural) [1]: active

Compound: CC(C)(C)c1ccc(C#CC(=O)c2ccc(N)cc2)cc1 [I.4, 1-(4-aminophenyl)-3-(4-(tert-butyl)phenyl)prop-2-yn-1-one]
- activity against EKP-induced drug-resistant seizures (behavioural) [1]: active

Compound: CC(C)(C)c1ccc(C#CC(=O)c2ccccc2N)cc1 [I.5, 1-(2-aminophenyl)-3-(4-(tert-butyl)phenyl)prop-2-yn-1-one]
- activity against EKP-induced drug-resistant seizures (behavioural) [1]: active

Compound: CCCCCCC#CC(=O)c1ccccc1N [I.6, 1-(2-aminophenyl)non-2-yn-1-one]
- reduction in EKP-induced drug-resistant seizures (non-significant) [1]: approximately 20%

Compound: CCCCCCC#CC(=O)c1ccc(C(=O)OCC)cc1 [I.7, ethyl 4-(non-2-ynoyl)benzoate]
- reduction in EKP-induced drug-resistant seizures (non-significant) [1]: approximately 20%

Compound: CC(C)(C)c1ccc(C#CC(=O)c2ccsc2)cc1 [I.8, 3-(4-(tert-butyl)phenyl)-1-(thiophen-3-yl)prop-2-yn-1-one]
- activity against EKP-induced drug-resistant seizures (behavioural) [1]: active

Compound: CCCCCCC#CC(=O)c1ccsc1 [I.9, 1-(thiophen-3-yl)non-2-yn-1-one]
- activity against EKP-induced drug-resistant seizures (behavioural) [1]: active

Compound: O=C(C#CC1CC1)c1ccsc1 [I.10, 3-cyclopropyl-1-(thiophen-3-yl)prop-2-yn-1-one]
- activity against EKP-induced drug-resistant seizures (behavioural) [1]: active

Compound: Cc1ccncc1C(=O)C#Cc1ccc(C(C)(C)C)cc1 [I.11, 3-(4-(tert-butyl)phenyl)-1-(4-methylpyridin-3-yl)prop-2-yn-1-one]
- activity against EKP-induced drug-resistant seizures (behavioural) [1]: active

Compound: CNc1ccccc1C(=O)C#Cc1ccc(C(C)(C)C)cc1 [I.14, 3-(4-(tert-butyl)phenyl)-1-(2-(methylamino)phenyl)prop-2-yn-1-one]
- activity against EKP-induced drug-resistant seizures (behavioural) [1]: active

Compound: O=c1cc(-c2ccccc2)[nH]c2ccccc12 [III.1, 2-phenylquinolin-4(1H)-one]
- reduction in EKP-induced drug-resistant seizures (non-significant) [1]: approximately 20%

Compound: CCCC(CCC)C(=O)[O-].[Na+] [valproate, sodium valproate, reference compound]
- protection against the electrically induced seizures (in words) (male NMRI mice; 300 mg/kg i.p., positive control): completely protected
